Values joined by “and” are separate entries in the source; they are usually repeats but may differ in a detail not shown here. Equal entries are not always repeated. Where two headings read alike, the source gives them in different places.
Tests used:
[1] = test system: fowl roundworm (Ascaridia galli); experiment: Anthelmintic test in chickens artificially infected with fowl roundworm, single oral dose in gelatin capsule, worm bodies counted within 48 hours (Test Examples A1, B1, C1, D1); format: in vivo; details: Ascaridia galli, po, 48 h, read-out: Anthelmintic effect after 48 hours
Method in brief: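 Anthelmintic percentage derived from counts of worms passed within 48 h plus worms left in the intestine after killing at 48 h. Infection confirmed by fecal examination in three-bird groups; compound given orally once in gelatin capsules at 10/20 (A1, B1), 30/50 (C1) or 15/30 (D1) mg/kg.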

[2] = test system: fowl roundworm (As. galli); experiment: Anthelmintic test in chickens artificially infected with fowl roundworm, compound added to feed, E.P.G. and worm count up to 21st day (Test Examples A2, B2, C2, D2); format: in vivo, Ascaridia galli; details: Ascaridia galli, 504 h, read-out: Anthelmintic effect
[3] = test system: canine strongyloides (Strongyloides stercoralis); experiment: Anthelmintic test against canine strongyloides in naturally infected dogs, E.P.G. on 7th day (Test Examples A4, B4, C4, D4); format: in vivo
Description: Three dogs infected with canine strongyloides (naturally infected dogs) were employed by grouping them into a group of two and a group of one.
As control, only a gelatin capsule was administered orally to the one dog.
(§1) Before administration and on the 7th day after administration, fecal matter testing was conducted to calculate the E.P.G., and the anthelmintic effect was judged by the changing of the E.P.G. to negative.
(§2) As control, only gelatin capsules were administered orally to the one dog.
as §2

[4] = test system: Trichostrongylidae (Trichostrongylus colubriformis); experiment: Anthelmintic test against sheep Trichostrongylidae in naturally infected sheep, E.P.G. on 7th day (Test Examples A7, B7, C7, D7); format: in vivo; details: for anthelmintic effect: one administration of 15 mg/Kg
Description: Two sheep infected with Trichostrongylidae (naturally infected sheep) were employed.
The compound provided for the test was Compound No. Al, 15 mg of which was placed in a gelatin capsule per 1 Kg of body weight and administered orally to one of the sheep. As a control, only gelatin capsules were administered orally to the other sheep.
as §1
As control, only gelatin capsules were administered orally to the other sheep.
As control, only gelatin capsule was administered orally to the other sheep.

[5] = test system: Trichostrongylidae (Trichostrongylus colubriformis); experiment: as above; format: in vivo
[6] = test system: canine filaria; Dirofilaria immitis; experiment: Test of anthelmintic effect against canine filaria in naturally infected dogs, subcutaneous injection, microfilaria in blood and adult filaria at autopsy (Test Examples A10, B10, C10, D10); format: in vivo
[7] = test system: Liver fluke; Fasciola hepatica (F. hepatica); experiment: Test of anthelmintic effect against rat infected experimentally with liver fluke (Test Examples A11, B11, C11, D11); format: in vivo; design: key to Presence or absence of fluke egg in fecal matter On 21st day after the last administration: +: indicates detection of fluke egg; -: indicates no detection
[8] = test system: canine whipworm (Trichuris vulpis); experiment: Anthelmintic test in naturally infected dogs with mixed infections, E.P.G. on 7th day: canine whipworm (Test Examples A3, B3, C3, D3); format: in vivo
Description: (§3) Three dogs with mixed infections by canine whipworm (Trichuris vulpis), canine hookworm (Ancylostoma caninum) and canine roundworm (Toxocara canis) (naturally infected dogs) were employed in a group of two and a group of one.
(§4) The compound provided for the test was Compound No.Al, and 20 mg/Kg thereof was placed in a gelatin capsule per 1 Kg of body weight, and administered orally to the two dogs. As control, only a gelatin capsule was administered orally to the one dog.
as §1, §2
(§5) The same method as in Test Example A3, but the compound provided for the test was Compound No. Cl. 30 mg/Kg of this compound was placed in a gelatin capsule per 1 Kg of body weight and administered orally to the two dogs. As control, only gelatin capsules were administered orally to the one dog.

[9] = test system: canine hookworm (Ancylostoma caninum); experiment: Anthelmintic test in naturally infected dogs with mixed infections, E.P.G. on 7th day: canine hookworm (Test Examples A3, B3, C3, D3); format: in vivo; details: dogs, 20 mg/Kg orally once, one value per dog
Description: as §3, §4, §1, §2, §5

[10] = test system: canine roundworm (Toxocara canis); experiment: Anthelmintic test in naturally infected dogs with mixed infections, E.P.G. on 7th day: canine roundworm (Test Examples A3, B3, C3, D3); format: in vivo; details: dogs, 20 mg/Kg orally once, one value per dog
Description: as §3, §4, §1, §2, §5

[11] = test system: swine roundworm (Ascaris suum); experiment: Test of anthelmintic effect in naturally infected pigs, E.P.G. on 7th day: swine roundworm (Test Examples A9, B9, C9, D9); format: in vivo
Description: (§6) Six pigs infected with swine roundworm and swine whipworm (naturally infected pigs) were employed in groups each of two pigs.
(§7) As a control, only gelatin capsules were administered orally to the two pigs.
(§8) Before administration and on the 7th day after. administration, fecal matter testing was conducted to calculate the E.P.G., and the anthelmintic effect was judged by the changing of the E.P.G. to negative'.
(§9) 50 mg of each compound was placed in a gelatin capsule per 1 Kg of body weight and administered orally to each of the two pigs. As control, only gelatin capsules were administered orally to two pigs.
(§10) 30 mg of each compound was placed in a gelatin capsule per 1 Kg of body weight and administered orally to each of the two pigs. As control, only gelatin capsules were administered orally to two pigs.

[12] = test system: swine whipworm (Trichuris suis); experiment: Test of anthelmintic effect in naturally infected pigs, E.P.G. on 7th day: swine whipworm (Test Examples A9, B9, C9, D9); format: in vivo; details: pigs, 20 mg/Kg orally once, one value per pig
Description: as §6, §7, §8, §9, §10

[13] = dogs, 20 mg/Kg x 3 subcutaneously, autopsy on 10th day after the last administration, one value per dog, 20 mg/kg

## CC=CCON(CC=CC)C(C)=O [Compound C10]
[1]; chicken, 30 mg/Kg oral in gelatin capsule, chickens No.1-3
  inhibition in vivo at 30 mg/kg: 80 to 90%
[1]; chicken, 50 mg/Kg oral in gelatin capsule, chickens No.1-3
  inhibition in vivo at 50 mg/kg: 100%
[2]; feed or water, chicken, 25 ppm in feed
  inhibition in vivo at 25 ppm: 80 to 90%
[2]; feed or water, chicken, 50 ppm in feed
  inhibition in vivo at 50 ppm: 100%
[3]; dog, Strongyloides stercoralis, 30 mg/Kg oral in gelatin capsule, one administration
  Change of E.P.G. 7th day: 0
[3]; dog, Strongyloides stercoralis, before 30 mg/Kg oral (baseline)
  Change of E.P.G. Before administration: 2,300 and 3,100
[3]; dogs, one administration of 30 mg/Kg
  anthelmintic effect: marked anthelmintic effect
[4]
  anthelmintic effect: marked anthelmintic effect
[5]; Trichostrongylus colubriformis, 20 mg/Kg oral in gelatin capsule, one administration
  Change of E.P.G. 7th day: 0
[5]; Trichostrongylus colubriformis, before 20 mg/Kg oral (baseline)
  Change of E.P.G. Before administration: 1,800

## C=CCN(OCC)C(C)=O [Compound B8, N-allyl-N-acetyl-O-ethylhydroxylamine]
[1]; chickens, 30 mg/Kg orally in gelatin capsule, one value per chicken (No.1-3)
  inhibition in vivo at 30 mg/kg: 100%
[1]; chickens, 50 mg/Kg orally in gelatin capsule, one value per chicken (No.1-3)
  inhibition in vivo at 50 mg/kg: 100%
[3]; dogs, 20 mg/Kg orally once, baseline, one value per dog, 20 mg/kg
  Change of E.P.G. Before administration: 5,300 E.P.G. and 2,600 E.P.G.
[3]; dogs, 20 mg/Kg orally once, one value per dog
  Change of E.P.G. 7th day: 0 E.P.G.
[6]; Dirofilaria immitis, sc, 240 h, dog, 30 mg/Kg x 3, subcutaneous injection, read-out: Effect on adult filaria: Percent of worms killed
  inhibition in vivo at 30 mg/kg: 58%
[6]; Dirofilaria immitis, sc, 240 h, dogs, administration of 30 mg/Kg repeated three times, given as about 50% or more, read-out: anthelmintic effect against adult filaria
  inhibition in vivo at 30 mg/kg: ≥ 50%
[6]; dog, 30 mg/Kg x 3, subcutaneous injection, suspension in 1% Tween 80
  Number of microfilaria/20 µl on 10th day after the last administration: 0 /20 µl
[6]; dog, 30 mg/Kg x 3, subcutaneous injection, 30 mg/kg
  Effect on adult filaria: Number of worms killed/ Total parasite: 7/12 and 13/21
[6]; dogs, administration of 30 mg/Kg repeated three times
  anthelmintic effect against microfilaria (mf): marked anthelmintic effect
[7]; rat, 50 mg/Kg x 5
  Condition of fluke body: dead
  Presence or absence of fluke egg in fecal matter On 21st day after the last administration: -
[7]; rats, five administrations in a dose of 50 mg/Kg each
  anthelmintic effect: marked antihelmintic effect
[5]; 20 mg/Kg orally once
  Change of E.P.G. 7th day: 0 E.P.G.
[5]; 20 mg/Kg orally once, baseline
  Change of E.P.G. Before administration: 3,400 E.P.G.
[5]; one administration of 20 mg/Kg
  anthelmintic effect: marked anthelmintic effect

## C#CCN(OC)C(C)=O [Compound A1, N-propargyl-N-acetyl-O-methylhydroxylamine]
[2]; po, chickens, 10 ppm added to feed, worm count on 21st day, one value per chicken
  inhibition in vivo at 10 ppm: 80 to 90%
[2]; po, chickens, 50 ppm added to feed, worm count on 21st day, one value per chicken
  inhibition in vivo at 50 ppm: 100%
[8]; dogs with mixed infections (Trichuris vulpis, Ancylostoma caninum, Toxocara canis; statement covers all three), one administration of 20 mg/Kg
  anthelmintic effect: marked anthelmintic effect
[8]; dogs, 20 mg/Kg orally once, Trichuris vulpis, baseline, one value per dog, 20 mg/kg
  Change of E.P.G. Before administration: 3,200 E.P.G. and 2,700 E.P.G.
[8]; dogs, 20 mg/Kg orally once, Trichuris vulpis, one value per dog
  Change of E.P.G. 7th day: 0 E.P.G.
[9]; baseline, 20 mg/kg
  Change of E.P.G. Before administration: 4,500 E.P.G. and 7,800 E.P.G.
[9]
  Change of E.P.G. 7th day: 0 E.P.G.
[10]; baseline, 20 mg/kg
  Change of E.P.G. Before administration: 5,100 E.P.G. and 2,300 E.P.G.
[10]
  Change of E.P.G. 7th day: 0 E.P.G.
[3]; dogs, one administration of 10 mg/Kg
  anthelmintic effect: marked anthelmintic effect
[3]; dogs, one administration of 20 mg/Kg
  anthelmintic effect: marked anthelmintic effect
[4]; 15 mg/Kg orally once
  Change of E.P.G. 7th day: 0 E.P.G.
[4]; 15 mg/Kg orally once, baseline
  Change of E.P.G. Before administration: 1,600 E.P.G.
[4]
  anthelmintic effect: marked anthelmintic effect
[11]; pigs infected with swine roundworm and swine whipworm (statement covers both), one administration of 20 mg/Kg
  anthelmintic effect: marked anthelmintic effect
[11]; pigs, 20 mg/Kg orally once, Ascaris suum, one value per pig
  Change of E.P.G. 7th day: 0 E.P.G.
[12]; baseline, 20 mg/kg
  Change of E.P.G. Before administration: 1,300 E.P.G. and 2,100 E.P.G.
[12]
  Change of E.P.G. 7th day: 0 E.P.G.
[6]; Dirofilaria immitis, sc, 240 h, dogs, administration of 20 mg/Kg repeated three times, given as about 50% or more, read-out: anthelmintic effect against adult filaria
  inhibition in vivo at 20 mg/kg: ≥ 50%
[6]; [13]
  Effect on adult filaria: Number of worms killed/Total parasites: 7/12 and 5/ 7
  Effect on adult filaria: Percent of worms killed: 58% and 71%
[6]; dogs, 20 mg/Kg x 3 subcutaneously, earlobe blood, one value per dog
  Number of microfilaria/20 µl On 10th day after the last administration: 0 /20 µl
[6]; dogs, administration of 20 mg/Kg repeated three times
  anthelmintic effect against microfilaria (mf): marked anthelmintic effect
[7]; rats, 50 mg/Kg x 5 orally, autopsy, liver, "Denatured" = fluke body is alive but a part of fluke body has changed, one value per rat
  Condition of fluke body: dead
[7]; rats, 50 mg/Kg x 5 orally, one value per rat
  Presence or absence of fluke egg in fecal matter On 21st day after the last administration: -

— patent EP0103895A2, “Novel hydroxylamine derivatives, production and use thereof” (MEIJI SEIKA KABUSHIKI KAISHA, priority 1982, dated 1984)
